Here are results for 6 compounds from US9822336B2, “Blastoid, cell line based artificial blastocyst” (Universiteit Maastricht, priority 2013, dated 2017).

Common to all, as to assay type: cell-based, mouse
Experiment [1] relates to Cdx2 expression in trophoblast stem cells of ES-TS aggregates. The experiment can be described thus: Cdx2 expression by CDX2 immunostaining. The conditions noted are these: CDX2 immunostaining (FIG. 4g). The procedure:
• Double layer formation: the formation of an (at least) double layered cell aggregate with an external layer of TS cells and an inner layer of ES cells is evaluated using transgenic cell lines. Specifically, ES cells were transfected with Histone 2B and a Red Fluorescent Protein under the control of a cytomegalovirus promoter and clonally derived. The H2B-RFP ES cells are thus constitutively expressing a red fluorescence within their nucleus which allows for their tracking. • TS cells were derived from a mouse constitutively expressing Green Fluorescent Protein (GFP) under the control of a cytomegalovirus promoter in all cells. The GFP TS cells are thus expressing a green fluorescence in their cytoplasma which allows for their tracking. • The formation of a double-layered aggregate is thus assessed by observing a green outer layer of cells and a red inner layer of cells. The efficiency of engulfment is determined as the percentage of green-colored projection area (representing the TS cell layer) that overlaps with an artificial 3-pixel-wide ring drawn around the red-colored projection area (representing the inner aggregate of ES cells) after 24 hours of culturing the ES-TS cell clusters. […] The formation of a cavity is preferably assessed using the cross-sectional section of a cellular aggregate stained with a nuclear-specific dye (for example DAPI). […]

In experiment [2] the test system is ES-TS cell clusters. The experiment can be described thus: Cavitation of ES-TS cell clusters (yield of cavitated blastoids). As to conditions: for yield of blastoids cavitation: FIG. 4i, added to CHIR99021 3 uM, versus control with CHIR99021 3 uM only; for yield of cavitated blastoids / cavitation: FIG. 4h. The procedure: FIG. 4c: […], The yield of cavitated blastoids is described by the percentage of ES-TS cell clusters that were cavitated after 96 hours of culture, thus forming an artificial blastocyst or blastoid. […]
The efficiency of blastoid formation is measured as the percentage of cavitated structures with (1) an external cellular layer expressing the transcription factors CDX2, Eomes and GATA3 and (2) an internal cellular aggregate expressing the transcription factors Oct4 and Sox2 and at least partly Nanog.
The formation of a cavity is assessed by the formation of a volume within the aggregate that is not occupied by cellular nucleus. The formation of a cavity is preferably assessed using the cross-sectional section of a cellular aggregate stained with a nuclear-specific dye (for example DAPI).
• Double layer formation: the formation of an (at least) double layered cell aggregate with an external layer of TS cells and an inner layer of ES cells is evaluated using transgenic cell lines. Specifically, ES cells were transfected with Histone 2B and a Red Fluorescent Protein under the control of a cytomegalovirus promoter and clonally derived. The H2B-RFP ES cells are thus constitutively expressing a red fluorescence within their nucleus which allows for their tracking. • TS cells were derived from a mouse constitutively expressing Green Fluorescent Protein (GFP) under the control of a cytomegalovirus promoter in all cells. The GFP TS cells are thus expressing a green fluorescence in their cytoplasma which allows for their tracking. • The formation of a double-layered aggregate is thus assessed by observing a green outer layer of cells and a red inner layer of cells. The efficiency of engulfment is determined as the percentage of green-colored projection area (representing the TS cell layer) that overlaps with an artificial 3-pixel-wide ring drawn around the red-colored projection area (representing the inner aggregate of ES cells) after 24 hours of culturing the ES-TS cell clusters. The said efficiency of engulfment described in FIG. 4 represents the average value taken from approximately 200 ES-TS cell clusters. • Cavitation: The formation of a cavity is assessed by the formation of a volume within the aggregate that is not occupied by cellular nucleus. The formation of a cavity is preferably assessed using the cross-sectional section of a cellular aggregate stained with a nuclear-specific dye (for example DAPI). […] The expression of cdx2 is assessed as the number of GFP positive cells with a cdx2 positive nucleus per 10 μm microscopic section. The expression of the transcription factors Oct4 and Nanog is assessed by conventional immunocytochemistry in ES-TS aggregates including H2B-RFP expressing ES cells. The expression of Oct4 and Nanog is assessed as the number of H2B-RFP positive cells with an Oct4 or Nanog positive nucleus per 10 μm microscopic section. Pictoral Summary of the Procedure for Blastoid Formation: […]

Experiment [3] deals with inner cell mass (ICM) of blastoids. The experiment can be described thus: Size of inner cell mass (ICM) in cavitated blastoids, projection area. The conditions noted are these: up to a concentration of 1000 μM (FIG. 4f). An excerpt:
FIG. 4d: size of inner cell mass (ICM) as a function of the average number of ES-cells seeded per microwell. Size of ICM, measured as the projection area of the ES cell cluster inside the cavitated blastoid, increases with increasing numbers of ES cells seeded per microwell.
The size of the inner cell mass (ICM) depends on the average number of ES-cells seeded, and increases with the number of ES-cells seeded per microwell as described in FIG. 4. The size as defined by its projection area is generally between 1000 and 5000 um^2, preferably between 2000 and 4500 um^2. The size is conveniently expressed by determining the projection area (in um^2) of the ICM through light microscopy.

The subject of experiment [4] is ES-TS cell clusters. The experiment can be described thus: Efficiency of engulfment during formation of ES-TS cell clusters. The conditions noted are these: at higher concentration of Y27632; after 24 hours of culture (FIG. 4a). The procedure: Mouse TS-cells were seeded at 17 cells/microwell in 150 μL B27N2 medium. After 20 minutes, 1 ml of B27N2 medium was added that included 10% FBS, Y27632 20 μM, 8Br-cAMP (1 mM), 007-AM (1 nM) and CHIR 3 μM, FGF4 15 ng/ml, Tgfb1 5 ng/ml, IGF2, 10 ng/ml, estradiol 10 ng/ml. The cells were placed in an incubator set at 37° Celsius to form the ES-TS cell cluster. • Double layer formation: the formation of an (at least) double layered cell aggregate with an external layer of TS cells and an inner layer of ES cells is evaluated using transgenic cell lines. […] The H2B-RFP ES cells are thus constitutively expressing a red fluorescence within their nucleus which allows for their tracking. • TS cells were derived from a mouse constitutively expressing Green Fluorescent Protein (GFP) under the control of a cytomegalovirus promoter in all cells. The GFP TS cells are thus expressing a green fluorescence in their cytoplasma which allows for their tracking. • The formation of a double-layered aggregate is thus assessed by observing a green outer layer of cells and a red inner layer of cells. […] The said efficiency of engulfment described in FIG. 4 represents the average value taken from approximately 200 ES-TS cell clusters. • Cavitation: The formation of a cavity is assessed by the formation of a volume within the aggregate that is not occupied by cellular nucleus. […]

For the compound “IGF2: a protein and a growth factor known in the art to activate the Akt pathway”, in experiment [1], the Cdx2 expression result is “positively correlates with an increase of Cdx2 expression”.
On to `CC(C)[C@H]1C(=O)N[C@H](CO)Cc2c[nH]c3cccc(c23)N1C` [Indolactam V], for which, in the experiment on ES-TS cell clusters [2], the “yield of blastoids cavitation” value is on record as “increase the yield of blastoids cavitation”. The yield of cavitation entry in the experiment with ES-TS cell clusters [2] (Indolactam V 0.1-10 uM, for example 1 uM) is “increases the yield of cavitation”.
`Nc1ncnc2c1nc(Br)n2[C@@H]1O[C@@H]2COP(=O)(O)O[C@H]2[C@H]1O` [8Br-cAMP]: the yield of cavitation entry in the experiment on ES-TS cell clusters [2] (8Br-cAMP 0.1-10 mM, for example 1 mM) is recorded as “increases the yield of cavitation”. The “yield of blastoids cavitation” value in the experiment with ES-TS cell clusters [2] was “increase the yield of blastoids cavitation”. Also, in experiment [3], the “size of ICM” value is “positively correlates with an increase in the size of ICM”.
In the case of `C[C@@H](N)[C@H]1CC[C@H](C(=O)Nc2ccncc2)CC1` [Y27632, (1R,4r)-4-((R)-1-aminoethyl)-N-(pyridin-4-yl)cyclohexanecarboxamide], in the experiment on ES-TS cell clusters [4], the efficiency of engulfment result is given as “increase in efficiency of engulfment”.
Turning to `Cc1c[nH]c(-c2cnc(NCCNc3ccc(C#N)cn3)nc2-c2ccc(Cl)cc2Cl)n1` [CHIR99021, 6-{2-[4-(2,4-dichloro-phenyl)-5-(4-methyl-1H-imidazol-2-yl)-pyrimidin-2-ylamino]-ethylamino}-nicotinonitrile], in the experiment with ES-TS cell clusters [2] (CHIR99021 at 3 uM), the blastoid yield was determined as 10% and the “yield of cavitated blastoids / cavitation” value was “increases the yield of cavitated blastoids”. The blastoid yield in the experiment with ES-TS cell clusters [2] (CHIR99021 at 20 uM) was ~30%. In addition, in the experiment with ES-TS cell clusters [2] (increasing concentrations (FIG. 4e)), the “yield of cavitated blastoids” value is given as “positively correlate with an increase in the yield of cavitated blastoids”.
For `Oc1nc(-c2ccc(C(F)(F)F)cc2)nc2c1CSCC2` [XAV939], the “yield of cavitated blastoids / cavitation” value in the experiment on ES-TS cell clusters [2] (CHIR99021 at 3 uM) is recorded as “prevents the cavitation of blastoids”.
